Experimental data reported in patent US8097440B1, “Engineered microorganisms capable of producing target compounds under anaerobic conditions” (Gevo, Inc., priority 2008, dated 2012).
Numbering of substitutions follows the chain as printed.

Experiments:
[1] = target: T1, E. coli KARI Ec_IlvC variant Ec_IlvC^Q110V-his6 (Q110V), SEQ ID NO: 23 (Escherichia coli, UniProt P05793, Q110V); assay: KARI cuvette assay, purified Ec_IlvC^Q110V-his6; assay type: biochemical; details: relative to Ec_IlvC^his6 with NADPH
T1 sequence (P05793 with tags, fused parts or gaps Q110V): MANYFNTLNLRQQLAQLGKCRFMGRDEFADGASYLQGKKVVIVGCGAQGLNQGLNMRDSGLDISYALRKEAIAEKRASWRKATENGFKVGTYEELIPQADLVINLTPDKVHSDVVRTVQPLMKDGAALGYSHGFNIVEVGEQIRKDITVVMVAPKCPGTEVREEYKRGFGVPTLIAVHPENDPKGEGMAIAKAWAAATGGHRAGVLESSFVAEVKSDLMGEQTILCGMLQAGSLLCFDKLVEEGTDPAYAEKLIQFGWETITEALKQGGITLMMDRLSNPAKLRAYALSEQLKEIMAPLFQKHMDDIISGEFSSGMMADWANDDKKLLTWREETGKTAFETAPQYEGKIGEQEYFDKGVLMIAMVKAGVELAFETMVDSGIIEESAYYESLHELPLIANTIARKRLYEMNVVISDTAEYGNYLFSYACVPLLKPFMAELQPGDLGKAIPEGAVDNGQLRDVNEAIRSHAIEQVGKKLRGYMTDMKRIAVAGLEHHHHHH
Protocol: (§1) KARI cuvette assay: KARI activity was assayed kinetically by monitoring the decrease in NAD(P)H concentration by measuring the absorbance at 340 nm. A reaction buffer was prepared containing 250 mM potassium phosphate pH 7, 1 mM DTT and 10 mM MgCl2. Cell pellets were resuspended (0.25 g wet weight/mL buffer) in 250 mM potassium phosphate (KPi) buffer containing 1 mM DTT and 10 mM MgCl2. The resuspended cells were lysed by sonication for 1 min with a 50% duty cycle and pelleted at 11000×g and 4° C. for 15 min. A reaction mixture consisting of 910 μl reaction buffer, 50 μl acetolactate, and 20 μl lysate was prepared in a cuvette. The reaction was initiated by addition of 20 μL of 10 mM NAD(P)H. A substrate free control was conducted using reaction buffer without the addition of acetolactate.
Purification of KARI: Cell pellets used for purification were resuspended in purification buffer A (20 mM Tris, 20 mM imidazol, 100 mM NaCl, 10 mM MgCl2, pH 7.4). KARI was purified by IMAC (Immobilized metal affinity chromatography) over a 1 ml Histrap High Performance (histrap HP) column pre-charged with Nickel (GE Healthcare) using an Akta FPLC system (GE Healthcare). […]

[2] = target: T2, Escherichia coli KARI (ketol-acid reductoisomerase) Ec_IlvC^his6, wild type IlvC (SEQ ID NO: 13) with his6-tag, SEQ ID NO: 15 (Escherichia coli, UniProt P05793); assay: KARI cuvette assay, purified Ec_IlvC^his6 (parent / wild type); assay type: biochemical, E. coli; details: relative to Ec_IlvC^his6 with NADPH
T2 sequence (P05793 with tags, fused parts or gaps): T1 sequence (P05793 with tags, fused parts or gaps Q110V) with V110Q
Protocol: as §1, with “The reaction was initiated by addition of 20 μL of 10 mM NAD(P)H. A substrate free control was conducted using reaction buffer without the addition of acetolactate.” left out
Only 20% of the enzymes of the recombination library were active on NADH. After screening 1,000 clones using the NADH depletion assay at 340 nm, 26 KARI variants were selected for a rescreen by the high-throughput assay described in Example 14 and eight thereof were expressed in 25 ml LBamp medium in shake flasks according to the protocol for cell growth and protein expression in shake flasks as described in Example 14, purified according to the protocol for purification of KARI enzymes as described in Example 14, and NAD(P)H depletion at 340 nm was measured again. […] The KM values of variants Ec_llvC^2H10-his6 and Ec_llvC^6E6-his6 were measured and the catalytic efficiencies were calculated.

Structure (SMILES): NC(=O)C1=CN([C@@H]2O[C@H](COP(=O)(O)OP(=O)(O)OC[C@H]3O[C@@H](n4cnc5c(N)ncnc54)[C@H](O)[C@@H]3O)[C@@H](O)[C@H]2O)C=CC1 [NADH, nicotinamide adenine dinucleotide]
- (kcat/KM with NADH)/(kcat/KM of Ec_IlvC^his6 with NADPH) [1]: 28%
- (kcat/KM with NADH)/(kcat/KM of Ec_IlvC^his6 with NADPH) [2]: 1%
